# Source: article PMC9475448, “What a difference a methylene makes: replacing Glu with Asp or Aad in the Lys-urea-Glu pharmacophore of PSMA-targeting radioligands to reduce kidney and salivary gland uptake” (Theranostics, 2022)
# Tested on: LNCaP tumor-bearing mice
# Assay: Ex vivo biodistribution of 177Lu-labeled ligands in LNCaP tumor-bearing NRG mice
# [1] = 4 h post-injection, listed as [177Lu]Lu-HTK03149
smiles,measurement,setting,value
O=C([O-])CN1CCN(CC(=O)[O-])CCN(CC(=O)NCC2CCC(C(=O)NC(Cc3c4ccccc4cc4ccccc34)C(=O)NCCCCC(NC(=O)NC(CCCC(=O)O)C(=O)O)C(=O)O)CC2)CCN(CC(=O)[O-])CC1.[177Lu+3] (stereo not drawn) [[^177Lu]Lu-HTK03149],Kidneys uptake,[1],1.666 ± 0.378 %IA/g
same,Salivary glands uptake,[1],0.051 ± 0.010 %IA/g
same,Tumor uptake,[1],20.90 ± 2.988 %IA/g
same,Adrenal glands uptake,24 h post-injection,0.073 ± 0.018 %IA/g
same,Blood uptake,24 h post-injection,0.116 ± 0.007 %IA/g
same,Blood:Salivary gland uptake ratio,24 h post-injection,2.37 ± 0.24
same,Bone uptake,24 h post-injection,0.025 ± 0.003 %IA/g
same,Brain uptake,24 h post-injection,0.006 ± 0.001 %IA/g
same,Fat uptake,24 h post-injection,0.017 ± 0.002 %IA/g
same,Heart uptake,24 h post-injection,0.065 ± 0.004 %IA/g
same,Intestines uptake,24 h post-injection,0.086 ± 0.047 %IA/g
same,Kidneys uptake,24 h post-injection,0.596 ± 0.109 %IA/g
same,Lacrimal glands uptake,24 h post-injection,0.004 ± 0.005 %IA/g
same,Liver uptake,24 h post-injection,0.103 ± 0.008 %IA/g
same,Lungs uptake,24 h post-injection,0.122 ± 0.015 %IA/g
same,Muscle uptake,24 h post-injection,0.017 ± 0.003 %IA/g
same,Pancreas uptake,24 h post-injection,0.032 ± 0.005 %IA/g
same,Salivary glands uptake,24 h post-injection,0.049 ± 0.007 %IA/g
same,Spleen uptake,24 h post-injection,0.085 ± 0.012 %IA/g
same,Stomach uptake,24 h post-injection,0.125 ± 0.112 %IA/g
same,Testes uptake,24 h post-injection,0.047 ± 0.003 %IA/g
same,Thyroid uptake,24 h post-injection,0.060 ± 0.002 %IA/g
same,Tumor uptake,24 h post-injection,13.80 ± 2.876 %IA/g
same,Tumor:Blood uptake ratio,24 h post-injection,120 ± 31.1
same,Tumor:Muscle uptake ratio,24 h post-injection,842 ± 216
same,Tumor:Salivary gland uptake ratio,24 h post-injection,286 ± 88.4
same,Adrenal glands uptake,72 h post-injection,0.124 ± 0.052 %IA/g
same,Blood uptake,72 h post-injection,0.067 ± 0.016 %IA/g
same,Blood:Salivary gland uptake ratio,72 h post-injection,1.45 ± 0.69
same,Bone uptake,72 h post-injection,0.026 ± 0.011 %IA/g
same,Brain uptake,72 h post-injection,0.003 ± 0.002 %IA/g
same,Fat uptake,72 h post-injection,0.042 ± 0.042 %IA/g
same,Heart uptake,72 h post-injection,0.060 ± 0.014 %IA/g
same,Intestines uptake,72 h post-injection,0.088 ± 0.034 %IA/g
same,Kidneys uptake,72 h post-injection,0.679 ± 0.387 %IA/g
same,Lacrimal glands uptake,72 h post-injection,0.006 ± 0.007 %IA/g
same,Liver uptake,72 h post-injection,0.130 ± 0.034 %IA/g
same,Lungs uptake,72 h post-injection,0.108 ± 0.022 %IA/g
same,Muscle uptake,72 h post-injection,0.018 ± 0.003 %IA/g
same,Pancreas uptake,72 h post-injection,0.033 ± 0.002 %IA/g
same,Salivary glands uptake,72 h post-injection,0.051 ± 0.016 %IA/g
same,Stomach uptake,72 h post-injection,0.140 ± 0.104 %IA/g
same,Testes uptake,72 h post-injection,0.053 ± 0.008 %IA/g
same,Thyroid uptake,72 h post-injection,0.079 ± 0.008 %IA/g
same,Tumor uptake,72 h post-injection,17.1±4.70 %IA/g
same,Tumor:Blood uptake ratio,72 h post-injection,258 ± 74.7
same,Tumor:Muscle uptake ratio,72 h post-injection,985 ± 342
same,Tumor:Salivary gland uptake ratio,72 h post-injection,349 ± 109
same,Tumor uptake,"72 h post-injection, listed as [177Lu]Lu-HTK03149",17.12 ± 4.702 %IA/g
same,Adrenal glands uptake,120 h post-injection,0.024 ± 0.027 %IA/g
same,Blood uptake,120 h post-injection,0.021 ± 0.006 %IA/g
same,Blood:Salivary gland uptake ratio,120 h post-injection,0.75 ± 0.19
same,Bone uptake,120 h post-injection,0.015 ± 0.007 %IA/g
same,Brain uptake,120 h post-injection,0.002 ± 0.001 %IA/g
same,Fat uptake,120 h post-injection,0.014 ± 0.009 %IA/g
same,Heart uptake,120 h post-injection,0.034 ± 0.014 %IA/g
same,Intestines uptake,120 h post-injection,0.069 ± 0.046 %IA/g
same,Kidneys uptake,120 h post-injection,0.276 ± 0.064 %IA/g
same,Lacrimal glands uptake,120 h post-injection,0.001 ± 0.002 %IA/g
same,Liver uptake,120 h post-injection,0.079 ± 0.041 %IA/g
same,Lungs uptake,120 h post-injection,0.086 ± 0.076 %IA/g
same,Muscle uptake,120 h post-injection,0.012 ± 0.004 %IA/g
same,Pancreas uptake,120 h post-injection,0.020 ± 0.007 %IA/g
same,Salivary glands uptake,120 h post-injection,0.029 ± 0.007 %IA/g
same,Spleen uptake,120 h post-injection,0.129 ± 0.079 %IA/g
same,Stomach uptake,120 h post-injection,0.084 ± 0.041 %IA/g
same,Testes uptake,120 h post-injection,0.033 ± 0.012 %IA/g
same,Thyroid uptake,120 h post-injection,0.044 ± 0.015 %IA/g
same,Tumor uptake,120 h post-injection,16.39 ± 10.99 %IA/g
same,Tumor:Blood uptake ratio,120 h post-injection,780 ± 451
same,Tumor:Muscle uptake ratio,120 h post-injection,1336 ± 566
same,Tumor:Salivary gland uptake ratio,120 h post-injection,533 ± 218
